These are literature values, as cited in US20210252031A1, “USE OF LACTULOSE IN THE TREATMENT OF AUTISM” (Curemark, LLC, priority 2006, published 2021).

SMILES strings stand for the structures.

As to `OC[C@H]1O[C@@H](O[C@@H]2[C@@H](CO)OC(O)(CO)[C@H]2O)[C@H](O)[C@@H](O)[C@H]1O` (stereo partly drawn) [Lactulose, 4-O-beta-D-galactopyranosyl-D-fructofuranose], the solubility in water result was “very soluble in water”.
